# Article PMC7915765, “Biochemical Characterization, Specificity and Inhibition Studies of HTLV-1, HTLV-2, and HTLV-3 Proteases” (Life, 2021)
# *1 amine or outer side, *2 acyl side, *3 side chain or, on linkers, in order; H or OH if unused. Where a SMILES comes first, the peptide text is derived from it. Side-chain parts run from the residue outwards. [ ]: non-standard residue; d: D form. LeuΨ(CH2N)Pro = CC(C)C[C@@H](CN1CCC[C@H]1C(=O)[*:2])N[*:1]; X1 = CC(C)C[C@@H](CN([C@H](C(=O)[*:2])C(C)C)[*:1])N[*:3]
# B1: ASPRV1: human retroviral-like aspartic protease 1 (literature) (protein, UniProt Q53RT3 191-326, looked up)
# Retroviral-like aspartic …: SMGKGYYLKGKIGKVPVRFLVDSGAQVSVVHPNLWEEVTDGDLDTLQPFENVVKVANGAEMKILGVWDTAVSLGKLKLKAQFLVANASAEEAIIGTDVLQDHNAILDFEHRTCTLKGKKFRLLPVGGSLEDEFDLE
# Key:
# [1] = molecular target: T1, HTLV-3 PR (Human T-cell leukemia virus 3, UniProt Q4U0X6); assay: biochemical
# T1 sequence (Q4U0X6 431-553): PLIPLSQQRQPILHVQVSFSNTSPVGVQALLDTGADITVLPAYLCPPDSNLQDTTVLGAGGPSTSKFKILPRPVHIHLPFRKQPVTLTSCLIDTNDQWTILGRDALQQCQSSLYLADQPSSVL
# Protocol: (§3) The reaction mixtures were prepared to contain 4.8 µL of substrate (in 0.40–0.43 mM final concentration), 0.2 µL of inhibitor, 5 µL of the enzyme, and 10 µL of a 2× incubation buffer. The substrates representing HTLV-2 and HTLV-3 MA/CA cleavage sites were used for HTLV-2 and HTLV-3 PRs, respectively. […] The inhibitors were dissolved in DMSO. Therefore, 0.2 µL of DMSO was added to the control samples.
# [2] = molecular target: T2, HTLV-2 PR (Human T-cell leukemia virus 2, UniProt P03363); assay: biochemical
# T2 sequence (P03363 447-571): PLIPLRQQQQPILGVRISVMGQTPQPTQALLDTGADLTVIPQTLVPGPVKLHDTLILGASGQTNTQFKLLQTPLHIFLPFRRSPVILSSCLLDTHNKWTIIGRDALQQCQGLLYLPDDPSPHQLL
# Protocol: as §3
# [3] = test system: ATLL cells; set-up: method as in PMID 16174765; details: ATLL cells ex vivo; ref [54]; cited from earlier work
# [4] = molecular target: T2, HTLV-2 PR; assay: Inhibition study with HIV-1 PIs, HTLV-2 PR; type: biochemical, human T-cell leukemia virus type 2; set-up: made in house; host or cells: E. coli BL21(DE3); details: inhibitor 1 µM final; for loss of activity: substrate HTLV-2 MA/CA 0.40–0.43 mM, DMSO control = 100%, n = 2
# Protocol: The inhibitors were dissolved in DMSO.
# [5] = test system: NF-κB transcriptional activation; set-up: method as in PMID 18316517; details: ATLL cells; ref [55]; cited from earlier work
# [6] = molecular target: T1, HTLV-3 PR; assay: Inhibition study with HIV-1 PIs, HTLV-3 PR; type: biochemical; set-up: made in house; host or cells: E. coli BL21(DE3), pET11a; details: inhibitor 1 µM final; for loss of activity: substrate HTLV-3 MA/CA 0.40–0.43 mM, DMSO control = 100%, n = 2
# Protocol: (§1) The IB-268 (KTKVL-r-VVQPK) and IB-269 (APQVL-r-PVMHP) reduced peptide bond (-r-)-containing inhibitors, which were synthesized by Dr. Ivo Blaha (Ferring Leciva, Prague, Czech Republic).
# (§2) The reaction mixtures were prepared to contain 4.8 µL of substrate (in 0.40–0.43 mM final concentration), 0.2 µL of inhibitor, 5 µL of the enzyme, and 10 µL of a 2× incubation buffer. The substrates representing HTLV-2 and HTLV-3 MA/CA cleavage sites were used for HTLV-2 and HTLV-3 PRs, respectively. In the case of HIV-1 PIs, we applied 100 µM inhibitor stocks, while 0.5–100 µM stocks of IB-268 and IB-269 were used for screening. The inhibitors were dissolved in DMSO. Therefore, 0.2 µL of DMSO was added to the control samples.
# [7] = test system: HTLV-1 PR; assay: Inhibition study with HIV-1 PIs, HTLV-1 PR; type: biochemical, human T-cell leukemia virus type 1; details: inhibitor 1 µM final
# Protocol: as §1, §2
# [8] = test system: HTLV-1 PR; set-up: method as in 2 sources, ref [41] = [41]; PMID 15158589; doi:10.1016/j.jviromet.2004.03.001; 41. Bagossi P. Kádas J. Miklóssy G. Boross P. Weber I.T. Tözsér J. Development of a microtiter plate fluorescent assay for inhibition studies on the HTLV-1 and HIV-1 proteinases J. Virol. Methods 2004 ||| ref [28] = [28]; PMID 15102858; doi:10.1074/jbc.M401868200; 28. Kádas J. Weber I.T. Bagossi P. Miklóssy G. Boross P. Oroszlan S. Tözsér J. Narrow substrate specificity and sensitivity toward ligand-binding site mutations of human T-cell leukemia virus type 1 p; details: ref [28]; cited from earlier work
# Text: (a) Comparison of relative activities determined in the presence of HIV-1 PIs applied in a 1-µM final concentration. For control measurements, reaction mixtures contained no inhibitor. Activity determined in the presence of DMSO was considered to be 100%. Error bars represent SD (n = 2). […] We repeated these experiments in our system for HTLV-2 and HTLV-3 PRs.
# [9] = ASPRV1; ref [51]; cited from earlier work
# Protocol: The dependence of enzyme activity on pH was studied in a 4.5–8.0 range. […] Our results imply that the optimal pH of HTLV-1 PR is higher than it was determined previously by Ha et al. (pH 5.2–5.3). The optimal pH determined for HTLV PRs is similar to the slightly acidic pH optimum of retroviral and retroviral-like proteases, including the HIV-1 PR (pH 4.0–6.0 range), the BLV PR (pH 4.0–6.5 range), ...
Molecule,Ki [1],Ki [2],inhibitory effect (in words) [4],loss of activity [4],inhibitory effect (in words) [6],loss of activity [6],inhibitory effect (in words) [7],other results
CC(C)C[C@@H](CN[C@H](C(=O)N[C@H](C(=O)N[C@@H](CCC(N)=O)C(=O)N1CCC[C@H]1C(=O)N[C@@H](CCCCN)C(=O)O)C(C)C)C(C)C)NC(=O)[C@@H](NC(=O)[C@H](CCCCN)NC(=O)[C@@H](NC(=O)[C@@H](N)CCCCN)[C@@H](C)O)C(C)C [IB-268] (H-[X1]([Val-Lys-Thr-Lys])VQPK-OH),214 nM,37 nM,–,–,–,–,–,–
CSCC[C@H](NC(=O)[C@@H](NC(=O)[C@@H]1CCCN1C[C@H](CC(C)C)NC(=O)[C@@H](NC(=O)[C@H](CCC(N)=O)NC(=O)[C@@H]1CCCN1C(=O)[C@H](C)N)C(C)C)C(C)C)C(=O)N[C@@H](Cc1c[nH]cn1)C(=O)N1CCC[C@H]1C(=O)O [IB-269] (H-APQV[LeuΨ(CH2N)Pro]VMHP-OH),14 nM,12 nM,–,–,–,–,–,–
CC(C)c1nc(CN(C)C(=O)N[C@H](C(=O)N[C@@H](Cc2ccccc2)C[C@H](O)[C@H](Cc2ccccc2)NC(=O)OCc2cncs2)C(C)C)cs1 [ritonavir],–,–,did not inhibit,< 50%,did not inhibit,< 50%,not an effective inhibitor,anti-leukemic activity [3]: anti-leukemic activity against ATLL cells ex vivo; inhibition of NF-κB transcriptional activation [5]: ritonavir-dependent inhibition of NF-κB transcriptional activation
CC(C)(C)NC(=O)[C@@H]1CN(Cc2cccnc2)CCN1C[C@@H](O)C[C@@H](Cc1ccccc1)C(=O)N[C@H]1c2ccccc2C[C@H]1O [indinavir],–,–,highest inhibition,< 50%,highest inhibition,< 50%,highest inhibition,"inhibition of wild-type HTLV-1 PR (in words) [8]: relatively good inhibitors; decrease of HTLV-1 PR activity ([7]; DMSO control = 100%, n = 2): ~ 50%"
B1,–,–,–,–,–,–,–,pH optimum [9]: 6.27 ± 0.02
